Results on twelve molecules are retold here after patent US7851493B2, “Phenyl-1,2,4-oxadiazolone derivatives with phenyl group, processes for their preparation and their use as pharmaceuticals” (Sanofi-Aventis, priority 2005, dated 2010).

Each structure is given as a SMILES string.

As a reminder, the EC50 is the concentration needed to bring the measured effect to its halfway point. A higher EC50 goes with a less potent agent.

One assay concerns the target T1, human PPARdelta (Homo sapiens, UniProt Q03181).
T1 construct: amino acids S139-Y441; expressed in transfected cells; plasmid pcDNA3
T1 sequence (Q03181 139-441): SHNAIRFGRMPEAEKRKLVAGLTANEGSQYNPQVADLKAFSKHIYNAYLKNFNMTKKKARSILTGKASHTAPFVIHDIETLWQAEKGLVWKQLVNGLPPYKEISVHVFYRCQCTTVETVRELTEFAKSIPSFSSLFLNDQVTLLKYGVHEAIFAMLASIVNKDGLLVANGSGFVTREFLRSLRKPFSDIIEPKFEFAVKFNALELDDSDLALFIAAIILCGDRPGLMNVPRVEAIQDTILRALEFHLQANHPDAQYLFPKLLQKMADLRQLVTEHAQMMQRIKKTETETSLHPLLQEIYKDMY
The assay can be described thus: Cellular PPARdelta assay (human GAL4 luciferase reporter, stably transfected HEK cell line). The class given is cell-based. As to the method:
Determination of EC50 Values of PPAR Agonists in the Cellular PPARdelta Assay
(§1) The potency of substances which bind to human PPARdelta and activate it in an agonistic manner is analyzed using a stably transfected HEK cell line (HEK=human embryo kidney) which is referred to here as PPARdelta reporter cell line. In analogy to the assay described for PPARalpha, the PPARdelta reporter cell line also contains two genetic elements, a luciferase reporter element (pdeltaM-GAL4-Luc-Zeo) and a PPARdelta fusion protein (GR-GAL4-humanPPARdelta-LBD) which mediates expression of the luciferase reporter element depending on a PPARdelta ligand. The stably and constitutively expressed fusion protein GR-GAL4-humanPPARdelta-LBD binds in the cell nucleus of the PPARdelta reporter cell line via the GAL4 protein portion to the GAL4 DNA binding motifs 5′-upstream of the luciferase reporter element which is stably integrated in the genome of the cell line. There is only little expression of the luciferase reporter gene in the absence of a PPARdelta ligand if fatty acid-depleted fetal calf serum (cs-FCS) is used in the assay. PPARdelta ligands bind and activate the PPARdelta fusion protein and thereby stimulate expression of the luciferase reporter gene. The luciferase which is formed can be detected by means of chemiluminescence via an appropriate substrate.
Construction of the PPARdelta Reporter Cell Line
The production of the stable PPARdelta reporter cell line is based on a stable HEK-cell clone which was stably transfected with a luciferase reporter element. This step was already described above in the section “construction of the PPARalpha reporter cell line”. In a second step, the PPARdelta fusion protein (GR-GAL4-humanPPARdelta-LBD was stably introduced into this cell clone. For this purpose, the cDNA coding for the N-terminal 76 amino acids of the glucocorticoid receptor (Accession #P04150) was linked to the cDNA section coding for amino acids 1-147 of the yeast transcription factor GAL4 (Accession #P04386). The cDNA of the ligand-binding domain of the human PPARdelta receptor (amino acids S139-Y441; Accession #L07592) was cloned in at the 3′-end of this GR-GAL4 construct. The fusion construct prepared in this way (GR-GAL4-humanPPARdelta-LBD) was recloned into the plasmid pcDNA3 (Invitrogen) in order to enable constitutive expression by the cytomegalovirus promoter. This plasmid was linearized with a restriction endonuclease and stably transfected into the previously described cell clone containing the luciferase reporter element. The resulting PPARdelta reporter cell line which contains a luciferase reporter element and constitutively expresses the PPARdelta fusion protein (GR-GAL4-human PPARdelta-LBD) was isolated by selection with zeocin (0.5 mg/ml) and G418 (0.5 mg/ml).
Assay Procedure and Evaluation
The activity of PPARdelta agonists is determined in a 3-day assay in exact analogy to the procedure already described for the PPARalpha reporter cell line except that the PPARdelta reporter cell line and a specific PPARdelta agonist was used as a standard to control test efficacy.
In general terms: A reporter such as luciferase makes a cellular process visible.

In a further assay the target is T2, human PPARalpha (Homo sapiens, UniProt Q07869).
T2 construct: amino acids S167-Y468; expressed in transfected cells; plasmid pcDNA3
T2 sequence (Q07869 167-468): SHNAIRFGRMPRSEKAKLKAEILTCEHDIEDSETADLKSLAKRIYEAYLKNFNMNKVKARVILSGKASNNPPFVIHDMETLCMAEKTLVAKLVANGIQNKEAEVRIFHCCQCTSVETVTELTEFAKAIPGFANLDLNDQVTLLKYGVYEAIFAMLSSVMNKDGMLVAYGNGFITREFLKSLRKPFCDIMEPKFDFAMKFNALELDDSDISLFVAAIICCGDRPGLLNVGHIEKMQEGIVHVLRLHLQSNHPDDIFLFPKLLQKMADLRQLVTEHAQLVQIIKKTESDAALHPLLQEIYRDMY
In words: Cellular PPARalpha assay (human GAL4 luciferase reporter, stably transfected HEK cell line). The class given is cell-based. How it is done:
Determination of EC50 Values of PPAR Agonists in the Cellular PPARalpha Assay
as §1, with “PPARalpha” for “PPARdelta”, “It” for “In analogy to the assay described for PPARalpha, the PPARdelta reporter cell line also”, “(GR-GAL4-humanPPARalpha-LBD)” for “(GR-GAL4-humanPPARdelta-LBD)”, “GR-GAL4-humanPPARalpha-LBD” for “GR-GAL4-humanPPARdelta-LBD”, “weak” for “little”, “stimulate the” for “stimulate”
Construction of the PPARalpha Reporter Cell Line
The PPARalpha reporter cell line was prepared in two stages. Firstly, the luciferase reporter element was constructed and stably transfected into HEK cells. For this purpose, five binding sites of the yeast transcription factor GAL4 (Accession #AF264724) were cloned in 5′-upstream of a 68 bp-long minimal MMTV promoter (Accession #V01175). The minimal MMTV promoter section contains a […] and a TATA element in order to enable efficient transcription by RNA polymerase II. The cloning and sequencing of the GAL4-MMTV construct took place in analogy to the description of Sambrook J. et al. (Molecular cloning, Cold Spring Harbor Laboratory Press, 1989). Then the complete Photinus pyralis gene (Accession #15077) was cloned in 3′-downstream of the GAL4-MMTV element. After sequencing, the luciferase reporter element consisting of five GAL4 binding sites, MMTV promoter and luciferase gene was recloned into a plasmid which confers zeocin resistance in order to obtain the plasmid pdeltaM-GAL4-Luc-Zeo. This vector was transfected into HEK cells in accordance with the statements in Ausubel, F. M. et al. (Current protocols in molecular biology, Vol. 1-3, John Wiley & Sons, Inc., 1995).
In a second step, the PPARalpha fusion protein (GR-GAL4-humanPPARalpha-LBD was introduced into the stable cell clone described. For this purpose, initially the cDNA coding for the N-terminal 76 amino acids of the glucocorticoid receptor (Accession #P04150) was linked to the cDNA section coding for amino acids 1-147 of the yeast transcription factor GAL4 (Accession #P04386). The cDNA of the ligand-binding domain of the human PPARalpha receptor (amino acids S167-Y468; Accession #S74349) was cloned in at the 3′-end of this GR-GAL4 construct. The fusion construct prepared in this way (GR-GAL4-humanPPARalpha-LBD) was recloned into the plasmid pcDNA3 (Invitrogen) in order to enable constitutive expression therein by the cytomegalovirus promoter. This plasmid was linearized with a restriction endonuclease and stably transfected into the previously described cell clone containing the luciferase reporter element. The finished PPARalpha reporter cell line which contains a luciferase reporter element and constitutively expresses the PPARalpha fusion protein (GR-GAL4-human PPARalpha-LBD) was isolated by selection with zeocin (0.5 mg/ml) and G418 (0.5 mg/ml).
The activity of PPARalpha agonists is determined in a 3-day assay, which is described below: […]

With `COc1cc(OCc2sc(-c3ccc(C(F)(F)F)cc3)nc2CN2CCC(C(F)(F)F)C2)ccc1-c1noc(=O)[nH]1` (racemic) [Example 9, 3-{2-Methoxy-4-[2-(4-trifluoromethyl-phenyl)-4-(3-trifluoromethyl-pyrrolidin-1-ylmethyl)thiazol-5-ylmethoxy]-phenyl}-4H-[1,2,4]oxadiazol-5-one], the EC50 on human PPARdelta is 0.056 µM; at human PPARalpha, 0.729 µM.
On the same counts, the results for `COc1cc(OCc2sc(-c3ccc(C(F)(F)F)cc3)nc2CN2CCC(C(F)(F)F)CC2)ccc1-c1noc(=O)[nH]1` [Example 1, 3-{2-Methoxy-4-[2-(4-trifluoromethyl-phenyl)-4-(4-trifluoromethyl-piperidin-1-ylmethyl)-thiazol-5-ylmethoxy]-phenyl}-4H-[1,2,4]oxadiazol-5-one] are 0.056 µM and 0.83 µM.
In the same order, the values of `COc1cc(OCc2sc(-c3ccc(C(F)(F)F)cc3)nc2CNC2CC2)ccc1-c1noc(=O)[nH]1` [Example 15, 3-{4-[4-Cyclopropylaminomethyl-2-(4-trifluoromethyl-phenyl)-thiazol-5-ylmethoxy]-2-methoxy-phenyl}-4H-[1,2,4]oxadiazol-5-one] are 0.153 µM and above 10 µM.
On the same counts, the results for `CN(CCO)Cc1nc(-c2ccc(C(F)(F)F)cc2)sc1COc1ccc(-c2noc(=O)[nH]2)c(F)c1` [Example 19, 3-{2-Fluoro-4-[4-{[(2-hydroxy-ethyl)-methyl-amino]-methyl}-2-(4-trifluoromethyl-phenyl)-thiazol-5-ylmethoxy]-phenyl}-4H-[1,2,4]oxadiazol-5-one] are 0.171 µM and 1.19 µM.
With `CC(=O)OCc1nc(-c2ccc(C(F)(F)F)cc2)sc1COc1ccc(-c2noc(=O)[nH]2)c(F)c1` [Example 33, Acetic acid 5-[3-fluoro-4-(5-oxo-4,5-dihydro-[1,2,4]oxadiazol-3-yl)-phenoxymethyl]-2-(4-trifluoromethyl-phenyl)-thiazol-4-ylmethyl ester], the EC50 on human PPARdelta was 0.299 µM; at human PPARalpha, 1.41 µM.
Take `Cc1cc(OCc2sc(-c3ccc(C(F)(F)F)cc3)nc2CNCCN2CCOCC2)ccc1-c1noc(=O)[nH]1` [Example 51, 3-{2-Methyl-4-[4-[(2-morpholin-4-yl-ethylamino)-methyl]-2-(4-trifluoromethyl-phenyl)-thiazol-5-ylmethoxy]-phenyl}-4H-[1,2,4]oxadiazol-5-one]: the EC50 came out at 0.228 µM at human PPARdelta and 1.21 µM on human PPARalpha.
In the same order, the values of `COCc1nc(/C=C/c2ccc(OC)cc2)oc1COc1ccc(-c2noc(=O)[nH]2)c(Cl)c1` [Example 55, 3-(2-Chloro-4-[4-methoxymethyl-2-[2-(4-methoxy-phenyl)-vinyl]-oxazol-5-ylmethoxy]-phenyl)-4H-[1,2,4]oxadiazol-5-one] are 0.003 µM and 0.319 µM.
In the same order, the values of `Cc1nc(COCc2ccccc2)oc1COc1ccc(-c2noc(=O)[nH]2)c(Cl)c1` [Example 56, 3-[4-(2-Benzyloxymethyl-4-methyl-oxazol-5-ylmethoxy)-2-chloro-phenyl]-4H-[1,2,4]oxadiazol-5-one] are 0.358 µM and 2.19 µM.
In the same order, the values of `COc1ccc(-c2nc(COc3ccc(-c4noc(=O)[nH]4)c(C)c3)c(CN3CCOCC3)o2)cc1` [Example 68, 3-{4-[2-(4-Methoxy-phenyl)-5-morpholin-4-ylmethyl-oxazol-4-ylmethoxy]-2-methyl-phenyl}-4H-[1,2,4]oxadiazol-5-one] are 0.661 µM and 1.2 µM.
As for `COCCN(CCOC)Cc1nc(-c2ccc(C(F)(F)F)cc2)sc1COc1ccc(-c2noc(=O)[nH]2)c(Cl)c1` [Example 77, 3-{4-[4-{[Bis-(2-methoxy-ethyl)-amino]-methyl}-2-(4-trifluoromethyl-phenyl)-thiazol-5-ylmethoxy]-2-chloro-phenyl}-4H-[1,2,4]oxadiazol-5-one], the EC50 turned out to be 0.003 µM on human PPARdelta and 0.53 µM at human PPARalpha.
As to `O=c1[nH]c(-c2ccc(OCc3sc(-c4ccc(C(F)(F)F)cc4)nc3COCCC3CCCCC3)cc2Cl)no1` [Example 83, 3-{2-Chloro-4-[4-(2-cyclohexyl-ethoxymethyl)-2-(4-trifluoromethyl-phenyl)-thiazol-5-ylmethoxy]-phenyl}-4H-[1,2,4]oxadiazol-5-one], the figures for the EC50 at human PPARdelta and at human PPARalpha were 0.012 µM and 0.398 µM, respectively.
On the same counts, the results for `COc1cc(OCc2sc(-c3ccc(C(F)(F)F)cc3)nc2CSC)ccc1-c1noc(=O)[nH]1` [Example 89, 3-{2-Methoxy-4-[4-methylsulfanylmethyl-2-(4-trifluoromethyl-phenyl)-thiazol-5-ylmethoxy]-phenyl}-4H-1,2,4-oxadiazol-5-one] are 0.153 µM and 2.62 µM.
